Experimental data from ChEMBL document CHEMBL1201862, “PubChem BioAssay data set” (2004).
Activity calls are given as the source filed them. Cut-off read from the data, not from the text of the source: actives have a measured IC50 and inactives only a lower limit.

These molecules were tested against Envelope glycoprotein gp160 (Human immunodeficiency virus 1, UniProt Q6QLK5) (assay: cell-free HIV fusion peptide-binding blockers – biochemical, uHTS, fluorescence dequenching, […] (AID 1986)).
Sequence of Envelope glycoprotein gp160 (Q6QLK5 whole entry, the tested form may be a part): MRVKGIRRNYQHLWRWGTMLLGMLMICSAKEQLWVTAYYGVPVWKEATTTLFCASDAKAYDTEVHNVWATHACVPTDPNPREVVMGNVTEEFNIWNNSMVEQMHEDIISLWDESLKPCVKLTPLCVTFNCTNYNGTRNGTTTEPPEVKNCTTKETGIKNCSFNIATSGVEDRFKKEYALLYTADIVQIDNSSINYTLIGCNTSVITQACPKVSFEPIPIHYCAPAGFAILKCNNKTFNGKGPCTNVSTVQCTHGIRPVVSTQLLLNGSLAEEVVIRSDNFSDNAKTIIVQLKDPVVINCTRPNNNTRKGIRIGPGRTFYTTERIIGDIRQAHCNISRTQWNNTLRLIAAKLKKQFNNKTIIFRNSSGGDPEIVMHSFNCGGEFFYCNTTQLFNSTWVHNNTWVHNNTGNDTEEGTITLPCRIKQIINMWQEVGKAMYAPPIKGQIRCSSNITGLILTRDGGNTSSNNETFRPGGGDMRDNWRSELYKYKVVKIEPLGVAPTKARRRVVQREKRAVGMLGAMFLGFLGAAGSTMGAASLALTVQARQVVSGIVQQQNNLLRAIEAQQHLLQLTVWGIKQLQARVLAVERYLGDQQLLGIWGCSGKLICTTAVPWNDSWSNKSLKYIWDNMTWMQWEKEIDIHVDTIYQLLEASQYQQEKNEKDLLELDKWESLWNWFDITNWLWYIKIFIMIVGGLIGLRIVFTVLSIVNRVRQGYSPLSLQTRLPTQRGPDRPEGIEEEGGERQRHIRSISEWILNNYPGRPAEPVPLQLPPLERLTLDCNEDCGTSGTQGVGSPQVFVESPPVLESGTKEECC
In the case of `O=C1NC(=O)/C(=C/c2ccc(-c3cc(C(=O)O)ccc3Cl)o2)S1`, the IC50 is reported as 25.8 µM (active). In the case of `CC(C(=O)Nc1ccc(O)c(C(=O)O)c1)N1C(=O)/C(=C/c2cccs2)SC1=S` (stereo not drawn), the IC50 is reported as 18.8 µM (active). For `COCCN1C(=O)/C(=C/c2ccc(OCc3ccc(C(=O)O)cc3)c(OC)c2)S/C1=N\c1ccccc1`, the IC50 was 15.1 µM (active).
